For the test, the system named is 231/LM2-4 human breast cancer cells. The experiment in a line: Advanced metastatic breast cancer model (231/LM2-4), survival after primary tumor resection. The test is classed as in vivo, CB-17 SCID mice. To be noted: for Median survival: therapy initiated 19 days after resection. The source says: The original cell line, MDA-MB 231, was a gift from Dr. Jeffrey F. Lemontt in September, 1989, together with other variants of this cell line. Cell line 231/LM2-4 (human breast cancer cells) used in the study was derived by one of the inventors as described in Munoz R, Man S, Shaked Y, et al. Highly efficacious non-toxic treatment for advanced metastatic breast cancer using combination UFT-cyclophosphamide metronomic chemotherapy, Cancer Res 2006; 66:3386-91.
Two million 231/LM2-4 human breast cancer cells were implanted into the mammary fat pad of 6-8 week old female CB-17 SCID mice purchased from Charles River Canada. Twenty days later when tumor volumes were approximately 400 mm^3, the primary tumors were surgically resected. Therapy was initiated 19 days after resection when visceral metastases were established in sites such as lung and liver. Mice were randomized into groups of 4 and treated as follows: 1) Control—vehicle; 2) Low dose metronomic oral topotecan; 3) pazopanib; 4) Low dose metronomic oral topotecan+pazopanib; 5) Maximum tolerated dose topotecan; and 6) maximum tolerated dose topotecan+pazopanib. The schedule and doses of drugs used were metronomic oral topotecan 1 mg/kg/d by gavage, maximum tolerated dose topotecan 1.5 mg/kg by gavage for 5 consecutive days followed by 16 days break ip, pazopanib 150 mg/kg/d by gavage, and control mice were given the topotecan vehicle and/or pazopanib vehicle. The oral topotecan and pazopanib preparations were mixed just prior to administration to avoid possible drug interaction. Institutional guidelines for survival endpoint were followed.

Regarding `CC[C@@]1(O)C(=O)OCc2c1cc1n(c2=O)Cc2cc3c(CN(C)C)c(O)ccc3nc2-1` [topotecan, (S)-10-[(dimethylamino)methyl]-4-ethyl-4,9-dihydroxy-1H-pyrano[3′,4′:6,7]indolizino [1,2-b]quinoline-3,14-(4H,12H)-dione], where the note is “LDM oral topotecan alone, 1 mg/kg/d by gavage”, the “Survival benefit compared to control untreated mice (FIG. 1)” value is given as “neither low dose metronomic (LDM) oral topotecan alone nor pazopanib alone had any survival benefit”. Also, the Median survival came to 56 days (low dose metronomic (LDM) oral topotecan alone, 1 mg/kg/d by gavage) and 63 days (maximum tolerated dose (MTD) topotecan 1.5 mg/kg for 5 consecutive days followed by 16 days break).
